Tests used:
[1] = tested on: oedema caused by the sub-plantar injection of carraghenin; assay: Antiinflammatory: reduction of sub-plantar oedema caused by carraghenin, rat; assay type: in vivo; settings: 100 mg/Kg/p.o.
Method: These properties are shown by a diminution of the local oedema caused by the sub-plantar injection of a phlogogenic agent, such as carraghenin, in the rat following the oral administration of compounds of formula (I).
The following Table VI lists, by way of example, the percentage reduction of the oedems caused by the sub-plantar injection of carraghenin, resulting from the administration of 100 mg/Kg/p.o. of different compounds of formula (I).

[2] = tested on: gastric ulcers, provoked in a rat by tying of the pylorus (Shay ulcers); assay: Antiulcerous: reduction of Shay ulcers (tying of the pylorus); assay type: in vivo; settings: 50 mg/Kg/i.d.
Method: The compounds of formula (I) administered by intraduodenal means reduce the extent of gastric ulcers, provoked in a rat by tying of the pylorus (Shay ulcers).
By way of example, there is listed in the following Table IX, the results obtained by the administrations of 50 mg/Kg/i.d. of different compounds of formula (I).

[3] = tested on: isolated ileum of the guinea-pig; assay: Antihistaminic: opposing histamine contraction of isolated ileum; settings: promethazine as standard
Method: The compounds of formula I, introduced in the conserving medium, are capable of opposing the contractural action of histamine on the isolated ileum of the guinea-pig. This activity is evaluated by taking promethazine as standard.

[4] = Lethal doses / percentage mortality, oral; assay type: in vivo; settings: 2 000 mg/Kg/p.o.; 2000 mg/kg
Description: As a result of a comparison between the pharmacologically active doses mentioned above and the lethal doses listed in the following Table XII, the difference between said doses is sufficiently great to permit the utilisation of the compounds of formula (I) in therapeutics.

[5] = tested on: rat suffering from high blood pressure; assay: Antihypertensive: return of systolic arterial pressure to normal in rats with high blood pressure; assay type: in vivo; settings: 200 mg/Kg/p.o.
Description: The compounds of formula (I), administered by oral means to a rat suffering from high blood pressure, are capable of lowering the systolic arteriel pressure.
By way of example, there is provided in the following Table IV the results obtained by administration of different compounds of formula (I).

[6] = tested on: bronchoconstriction provoked in the guinea-pig by acetylcholine; assay: Antibronchoconstrictive and anticholinergic: bronchoconstriction by intravenous acetylcholine, Konzett method; assay type: in vivo; settings: 100 mg/kg/i.d.
Description: Injected by intraveinous or intraduodenal means, the compounds of formula (I) are capable of opposing the bronchoconstriction provoked in the guinea-pig by the itraveinous injection of acetylcholine by the Konzett method.
By way of example, the following Table VII lists the results obtained by the administration of different compounds of formula (I)

[7] = tested on: excursions into the escape enclosure; assay: Central nervous system stimulation: excursions in the escape test; assay type: in vivo; settings: 100 mg/Kg/p.o., mouse
Method: The compounds of formula (I), administered by oral means to the mouse, provoke an augmentation of the number of excursions into the escape enclosure.
Thus, following the administration of 100 mg/Kg/p.o. of the compounds of Code Nos. 72 457 and 72 736, an augmentation of 30% in the number of excursions in the escape test, is observed.

volume of urine emitted = assay: Diuretic: augmentation of urinary elimination; assay type: in vivo; settings: 25 mg/Kg/p.o., mouse, 6 hours
Method: The compounds of formula (I), administered by oral means to the mouse, simultaneously with a volume of 1 ml. of an isotonic solution of sodium chloride per 25 g of the corporeal weight of the mouse, are capable of provoking an augmentation of the volume of urine emitted by reference to control animals, the volume being measured for 6 hours following administration.
By way of example, the following Table XI lists the results obtained by the administration of 25 mg/Kg/p.o. of different compounds of formula (I).

| SMILES | Percentage reduction of sub-plantar oedema [1] [%] | Percentage reduction of Shay ulcers [2] [%] | antihistaminic activity relative to promethazine [3] | Percentage mortality [4] [%] | Percentage of rats with high blood pressure whose systolic arteriel pressure is returned to normal [5] [%] | Percentage inhibition of bronchoconstriction [6] [%] | augmentation in the number of excursions in the escape test [7] [%] | Percentage augmentation of urinary elimination (volume of urine emitted) [%] |
| --- | --- | --- | --- | --- | --- | --- | --- | --- |
| O=C(CCn1c(CN2CCCC2)nc2ccccc21)c1ccc(Cl)cc1 [72 366] | 60 | 40 | equivalent activity to that of promethazine | 0 | – | – | – | – |
| Cc1ccc(C(=O)CCn2c(CN(C)C)nc3ccccc32)cc1 [72 457] | – | 30 | – | 0 | 50 | 80 | 30 | 45 |

— patent publication US3962256A, “2-Aminomethyl benzimidazole derivatives” (Delalande S.A., priority 1973, dated 1976)
